Results: ChEMBL document CHEMBL5212743, “Selectivity Literature for EUbOPEN Chemogenomics Library wave 3” (2023)
One block for each molecule: values may come before it.

Assays:
[1] = molecular target: Mitogen-activated protein kinase 6 (Homo sapiens) (UniProt Q16659); test: Selectivity interaction (KinomeScan (DiscoverX)) EUB0000300bCl MAPK6; details: at 1 µM
[2] = molecular target: T1, Alpha-1B adrenergic receptor (Homo sapiens, UniProt P35368); test: Selectivity interaction (GPCR panel (PDSP screen)) EUB0000300bCl ADRA1B
T1 sequence (P35368 whole entry): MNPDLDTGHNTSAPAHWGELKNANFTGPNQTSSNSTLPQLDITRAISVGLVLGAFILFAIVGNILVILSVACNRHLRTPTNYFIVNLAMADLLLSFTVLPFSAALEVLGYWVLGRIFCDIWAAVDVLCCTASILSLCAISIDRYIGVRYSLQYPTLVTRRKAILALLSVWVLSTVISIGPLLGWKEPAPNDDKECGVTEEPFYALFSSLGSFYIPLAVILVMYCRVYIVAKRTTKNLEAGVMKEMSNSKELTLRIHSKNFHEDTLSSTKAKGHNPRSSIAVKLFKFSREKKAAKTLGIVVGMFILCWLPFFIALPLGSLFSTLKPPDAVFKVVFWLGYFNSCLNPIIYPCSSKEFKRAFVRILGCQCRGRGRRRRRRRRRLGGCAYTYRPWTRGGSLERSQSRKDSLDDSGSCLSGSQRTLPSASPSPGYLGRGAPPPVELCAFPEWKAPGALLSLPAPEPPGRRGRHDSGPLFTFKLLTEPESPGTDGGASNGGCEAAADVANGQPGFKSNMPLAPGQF

[3] = molecular target: T2, Alpha-1A adrenergic receptor (Homo sapiens) (UniProt P35348); test: (§1) Selectivity interaction (GPCR panel (PDSP screen)) EUB0000300bCl ADRA1A; details: at 10 µM
T2 sequence (whole entry): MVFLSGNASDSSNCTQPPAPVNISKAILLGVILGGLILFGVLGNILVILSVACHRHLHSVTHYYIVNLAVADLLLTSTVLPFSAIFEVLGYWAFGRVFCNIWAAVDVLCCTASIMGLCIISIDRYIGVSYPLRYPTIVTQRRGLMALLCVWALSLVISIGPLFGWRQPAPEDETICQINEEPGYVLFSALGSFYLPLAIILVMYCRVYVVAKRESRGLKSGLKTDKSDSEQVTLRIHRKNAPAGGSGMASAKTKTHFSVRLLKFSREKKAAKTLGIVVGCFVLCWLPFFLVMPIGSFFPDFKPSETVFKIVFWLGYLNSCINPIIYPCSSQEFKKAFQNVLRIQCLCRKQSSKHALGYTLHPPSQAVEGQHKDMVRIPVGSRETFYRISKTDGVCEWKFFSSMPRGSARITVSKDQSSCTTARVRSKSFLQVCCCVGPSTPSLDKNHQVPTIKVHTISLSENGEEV

[4] = molecular target: T3, Alpha-1A adrenergic receptor (Homo sapiens, UniProt P35348); test: as §1
T3 sequence (P35348 whole entry): T2 sequence (whole entry)

[5] = molecular target: Tyrosine-protein kinase receptor TYRO3 (Homo sapiens) (UniProt Q06418); test: Selectivity interaction (KinomeScan (DiscoverX)) EUB0000300bCl TYRO3; details: at 1 µM
Tyrosine-protein kinase receptor TYRO3 (Homo sapiens), sequence (Q06418 whole entry): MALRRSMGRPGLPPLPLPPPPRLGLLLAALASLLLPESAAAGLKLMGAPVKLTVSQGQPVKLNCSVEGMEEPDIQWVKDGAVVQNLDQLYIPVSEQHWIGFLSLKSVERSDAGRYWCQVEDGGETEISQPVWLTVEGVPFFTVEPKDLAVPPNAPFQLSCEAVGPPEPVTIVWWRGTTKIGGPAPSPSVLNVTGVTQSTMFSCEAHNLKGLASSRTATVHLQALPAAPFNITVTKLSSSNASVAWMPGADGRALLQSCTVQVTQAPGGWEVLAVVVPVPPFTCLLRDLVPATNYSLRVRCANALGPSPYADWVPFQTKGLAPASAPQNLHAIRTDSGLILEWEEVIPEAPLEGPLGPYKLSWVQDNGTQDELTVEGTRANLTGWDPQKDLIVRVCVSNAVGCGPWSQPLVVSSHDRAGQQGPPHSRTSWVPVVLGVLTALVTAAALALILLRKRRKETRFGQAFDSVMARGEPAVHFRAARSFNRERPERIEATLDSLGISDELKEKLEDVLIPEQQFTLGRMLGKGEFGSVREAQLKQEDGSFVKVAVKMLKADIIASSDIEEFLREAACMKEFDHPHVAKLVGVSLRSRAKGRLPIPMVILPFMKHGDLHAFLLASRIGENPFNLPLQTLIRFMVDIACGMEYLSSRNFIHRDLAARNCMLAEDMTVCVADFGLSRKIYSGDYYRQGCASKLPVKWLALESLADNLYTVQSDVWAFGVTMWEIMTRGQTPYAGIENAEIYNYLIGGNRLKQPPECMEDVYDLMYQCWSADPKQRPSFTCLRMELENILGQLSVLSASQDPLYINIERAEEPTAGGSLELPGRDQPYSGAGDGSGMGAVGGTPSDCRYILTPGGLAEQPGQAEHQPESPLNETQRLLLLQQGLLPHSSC

[6] = molecular target: T4, Alpha-2B adrenergic receptor (Homo sapiens) (UniProt P18089); test: Selectivity interaction (GPCR panel (PDSP screen)) EUB0000300bCl ADRA2B; details: at 10 µM
T4 sequence (whole entry): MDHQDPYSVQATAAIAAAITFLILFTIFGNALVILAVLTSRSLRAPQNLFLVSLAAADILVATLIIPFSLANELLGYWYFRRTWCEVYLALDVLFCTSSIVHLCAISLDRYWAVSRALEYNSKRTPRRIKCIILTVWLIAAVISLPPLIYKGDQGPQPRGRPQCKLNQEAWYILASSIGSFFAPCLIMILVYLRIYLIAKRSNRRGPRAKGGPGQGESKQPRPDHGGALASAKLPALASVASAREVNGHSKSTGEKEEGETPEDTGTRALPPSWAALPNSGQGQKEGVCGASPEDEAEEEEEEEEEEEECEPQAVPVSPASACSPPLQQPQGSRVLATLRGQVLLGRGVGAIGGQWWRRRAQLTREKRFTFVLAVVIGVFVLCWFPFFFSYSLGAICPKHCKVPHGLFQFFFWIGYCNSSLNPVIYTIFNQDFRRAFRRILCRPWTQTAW

[7] = molecular target: Leucine-rich repeat serine/threonine-protein kinase 2 (Homo sapiens, UniProt Q5S007); test: Selectivity interaction (KinomeScan (DiscoverX)) EUB0000711a LRRK2; details: at 100 nM
[8] = molecular target: Serine/threonine-protein kinase Nek1 (Homo sapiens) (UniProt Q96PY6); test: Selectivity interaction (KinomeScan (DiscoverX)) EUB0000711a NEK1; details: at 100 nM
[9] = molecular target: Serine/threonine-protein kinase 38-like (Homo sapiens, UniProt Q9Y2H1); test: Selectivity interaction (KinomeScan (DiscoverX)) EUB0000711a STK38L; details: at 100 nM
[10] = molecular target: Calcium/calmodulin-dependent protein kinase type IV (Homo sapiens) (UniProt Q16566); test: Selectivity interaction (Kinase panel) EUB0000209b CAMK4; details: at 10 µM
Calcium/calmodulin-dependent protein kinase type IV (Homo sapiens), sequence (Q16566 whole entry): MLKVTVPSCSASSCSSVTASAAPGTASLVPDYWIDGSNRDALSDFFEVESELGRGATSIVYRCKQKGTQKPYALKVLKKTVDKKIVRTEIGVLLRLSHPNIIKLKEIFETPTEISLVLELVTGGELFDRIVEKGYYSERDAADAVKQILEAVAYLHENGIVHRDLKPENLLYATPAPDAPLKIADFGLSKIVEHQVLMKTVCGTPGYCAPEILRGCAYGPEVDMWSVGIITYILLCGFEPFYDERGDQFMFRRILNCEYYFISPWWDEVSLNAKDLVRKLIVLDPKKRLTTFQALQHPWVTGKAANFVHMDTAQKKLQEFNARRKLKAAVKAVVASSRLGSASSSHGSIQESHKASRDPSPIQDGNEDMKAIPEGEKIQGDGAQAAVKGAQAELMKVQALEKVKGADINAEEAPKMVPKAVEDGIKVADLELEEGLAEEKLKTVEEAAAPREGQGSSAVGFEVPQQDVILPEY

[11] = molecular target: Protein arginine N-methyltransferase 3 (Homo sapiens, UniProt O60678); test: Selectivity interaction (HMT panel) EUB0000209b PRMT3; details: at 1 µM
[12] = molecular target: Mitogen-activated protein kinase kinase kinase 20 (Homo sapiens) (UniProt Q9NYL2); test: Selectivity interaction (KinomeScan (DiscoverX)) EUB0000132b MAP3K20; details: at 1 µM
[13] = molecular target: Ribosomal protein S6 kinase alpha-6 (Homo sapiens) (UniProt Q9UK32); test: Selectivity interaction (KinomeScan (DiscoverX)) EUB0000132b RPS6KA6; details: at 1 µM
[14] = molecular target: Mast/stem cell growth factor receptor Kit (Homo sapiens, UniProt P10721); test: (§2) Selectivity interaction (KinomeScan (DiscoverX)) EUB0000132b KIT; details: at 1 µM
Mast/stem cell growth factor receptor Kit, sequence (P10721 whole entry): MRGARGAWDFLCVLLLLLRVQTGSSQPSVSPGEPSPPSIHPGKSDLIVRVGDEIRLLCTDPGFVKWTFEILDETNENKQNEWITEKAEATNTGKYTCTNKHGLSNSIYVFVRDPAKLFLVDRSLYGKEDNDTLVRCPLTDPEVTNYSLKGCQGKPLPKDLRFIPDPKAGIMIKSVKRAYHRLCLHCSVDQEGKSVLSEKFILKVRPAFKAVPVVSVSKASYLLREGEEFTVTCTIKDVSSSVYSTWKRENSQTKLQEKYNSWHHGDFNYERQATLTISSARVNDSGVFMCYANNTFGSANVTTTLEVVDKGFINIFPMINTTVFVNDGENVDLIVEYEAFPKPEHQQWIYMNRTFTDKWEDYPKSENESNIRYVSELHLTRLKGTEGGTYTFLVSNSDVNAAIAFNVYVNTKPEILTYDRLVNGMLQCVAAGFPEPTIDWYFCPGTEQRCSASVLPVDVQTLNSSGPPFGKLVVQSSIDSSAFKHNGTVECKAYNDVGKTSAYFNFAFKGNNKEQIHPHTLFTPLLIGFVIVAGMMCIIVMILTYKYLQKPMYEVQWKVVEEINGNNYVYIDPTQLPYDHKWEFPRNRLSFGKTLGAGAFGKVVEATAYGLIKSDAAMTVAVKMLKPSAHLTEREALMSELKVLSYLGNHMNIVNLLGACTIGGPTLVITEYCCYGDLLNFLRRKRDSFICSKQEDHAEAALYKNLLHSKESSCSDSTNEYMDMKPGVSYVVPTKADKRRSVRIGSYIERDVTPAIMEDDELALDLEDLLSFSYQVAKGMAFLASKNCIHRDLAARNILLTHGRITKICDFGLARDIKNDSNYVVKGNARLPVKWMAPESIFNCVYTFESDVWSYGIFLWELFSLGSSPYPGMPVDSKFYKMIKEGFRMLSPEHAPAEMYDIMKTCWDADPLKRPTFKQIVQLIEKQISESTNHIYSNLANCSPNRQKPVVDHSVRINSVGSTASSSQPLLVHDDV

[15] = test system: Mast/stem cell growth factor receptor Kit (Homo sapiens), P10721 [V559D]; test: as §2; details: at 1 µM
Mast/stem cell growth factor receptor Kit (Homo sapiens), P10721 [V559D], sequence (P10721 whole entry V559D, the tested form may be a part): as the sequence (P10721 whole entry) above, with V559D counted along it

[16] = molecular target: Epithelial discoidin domain-containing receptor 1 (Homo sapiens, UniProt Q08345); details: at 1 µM
[17] = molecular target: Myosin light chain kinase family member 4 (Homo sapiens) (UniProt Q86YV6); test: Selectivity interaction (KinomeScan (DiscoverX)) EUB0000132b MYLK4; details: at 1 µM
Myosin light chain kinase family member 4 (Homo sapiens), sequence (Q86YV6 whole entry, the tested form may be a part): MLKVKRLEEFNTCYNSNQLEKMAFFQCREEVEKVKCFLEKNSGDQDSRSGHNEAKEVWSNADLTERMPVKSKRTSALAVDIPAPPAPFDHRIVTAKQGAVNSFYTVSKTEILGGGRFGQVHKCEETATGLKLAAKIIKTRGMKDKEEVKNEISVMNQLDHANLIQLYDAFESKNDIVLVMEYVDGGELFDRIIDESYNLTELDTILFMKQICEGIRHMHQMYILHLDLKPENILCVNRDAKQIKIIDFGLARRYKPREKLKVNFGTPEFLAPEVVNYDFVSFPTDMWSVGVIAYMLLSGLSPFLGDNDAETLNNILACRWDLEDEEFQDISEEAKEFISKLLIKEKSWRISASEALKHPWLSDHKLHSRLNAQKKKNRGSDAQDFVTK

[18] = molecular target: Discoidin domain-containing receptor 2 (Homo sapiens) (UniProt Q16832); test: Selectivity interaction (KinomeScan (DiscoverX)) EUB0000132b DDR2; details: at 1 µM
[19] = molecular target: T5, Phosphatidylinositol 4,5-bisphosphate 3-kinase catalytic subunit delta isoform (Homo sapiens) (UniProt O00329); details: at 1 µM
T5 sequence (whole entry): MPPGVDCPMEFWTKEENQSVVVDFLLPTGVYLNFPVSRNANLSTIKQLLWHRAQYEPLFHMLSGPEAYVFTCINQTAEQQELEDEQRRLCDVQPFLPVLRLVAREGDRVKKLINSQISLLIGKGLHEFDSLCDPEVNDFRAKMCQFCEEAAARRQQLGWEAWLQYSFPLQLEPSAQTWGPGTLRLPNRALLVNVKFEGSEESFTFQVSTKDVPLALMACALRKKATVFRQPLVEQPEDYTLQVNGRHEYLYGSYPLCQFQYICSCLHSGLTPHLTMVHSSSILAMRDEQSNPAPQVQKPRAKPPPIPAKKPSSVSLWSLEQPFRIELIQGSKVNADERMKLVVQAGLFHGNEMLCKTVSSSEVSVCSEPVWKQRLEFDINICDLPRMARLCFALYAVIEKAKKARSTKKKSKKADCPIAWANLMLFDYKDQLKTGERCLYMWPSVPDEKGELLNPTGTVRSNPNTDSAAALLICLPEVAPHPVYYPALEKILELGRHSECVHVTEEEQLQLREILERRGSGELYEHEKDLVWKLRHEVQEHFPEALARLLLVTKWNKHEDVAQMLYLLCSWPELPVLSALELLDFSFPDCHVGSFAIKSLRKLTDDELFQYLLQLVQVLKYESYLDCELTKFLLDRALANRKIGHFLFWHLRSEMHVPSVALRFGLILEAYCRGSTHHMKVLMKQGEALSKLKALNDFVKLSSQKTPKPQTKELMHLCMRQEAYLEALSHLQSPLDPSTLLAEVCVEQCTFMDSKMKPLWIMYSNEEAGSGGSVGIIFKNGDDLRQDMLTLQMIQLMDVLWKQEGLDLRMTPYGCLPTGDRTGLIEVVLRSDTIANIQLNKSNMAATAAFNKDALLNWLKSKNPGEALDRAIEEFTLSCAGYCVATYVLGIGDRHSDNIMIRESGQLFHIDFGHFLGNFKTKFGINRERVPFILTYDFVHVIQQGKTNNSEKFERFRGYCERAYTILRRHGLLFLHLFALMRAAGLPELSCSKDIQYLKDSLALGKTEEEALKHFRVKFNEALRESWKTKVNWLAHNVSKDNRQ

[20] = molecular target: Phosphatidylinositol 4,5-bisphosphate 3-kinase catalytic subunit alpha isoform (Homo sapiens, UniProt P42336); details: at 1 µM
Phosphatidylinositol 4,5-bisphosphate 3-kinase catalytic subunit alpha isoform, sequence (P42336 whole entry, canonical isoform): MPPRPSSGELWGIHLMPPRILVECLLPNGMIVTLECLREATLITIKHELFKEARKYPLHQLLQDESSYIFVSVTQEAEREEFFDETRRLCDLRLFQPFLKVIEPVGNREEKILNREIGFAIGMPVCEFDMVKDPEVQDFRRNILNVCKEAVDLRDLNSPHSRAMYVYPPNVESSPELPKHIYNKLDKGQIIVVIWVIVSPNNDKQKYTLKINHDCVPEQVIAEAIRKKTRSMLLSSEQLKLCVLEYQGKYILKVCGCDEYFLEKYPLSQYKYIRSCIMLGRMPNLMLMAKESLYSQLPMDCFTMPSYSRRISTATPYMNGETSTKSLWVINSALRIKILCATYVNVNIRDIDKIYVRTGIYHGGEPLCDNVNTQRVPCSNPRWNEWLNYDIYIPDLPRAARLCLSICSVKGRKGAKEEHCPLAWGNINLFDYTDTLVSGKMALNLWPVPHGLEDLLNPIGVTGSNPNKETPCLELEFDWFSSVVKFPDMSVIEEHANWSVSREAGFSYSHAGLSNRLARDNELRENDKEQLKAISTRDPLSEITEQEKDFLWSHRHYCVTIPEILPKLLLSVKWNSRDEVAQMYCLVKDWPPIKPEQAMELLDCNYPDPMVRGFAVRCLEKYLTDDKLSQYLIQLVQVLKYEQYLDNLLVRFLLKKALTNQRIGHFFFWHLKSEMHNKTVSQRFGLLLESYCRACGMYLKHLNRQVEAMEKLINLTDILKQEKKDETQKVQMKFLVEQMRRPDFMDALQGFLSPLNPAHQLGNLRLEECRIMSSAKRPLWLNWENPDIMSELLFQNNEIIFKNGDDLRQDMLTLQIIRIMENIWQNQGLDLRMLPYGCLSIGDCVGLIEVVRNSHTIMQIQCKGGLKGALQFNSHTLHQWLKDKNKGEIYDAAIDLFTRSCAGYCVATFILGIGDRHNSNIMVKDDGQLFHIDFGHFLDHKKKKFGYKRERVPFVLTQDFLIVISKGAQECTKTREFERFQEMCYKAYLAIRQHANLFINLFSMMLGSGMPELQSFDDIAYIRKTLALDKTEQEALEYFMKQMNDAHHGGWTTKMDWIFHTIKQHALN

[21] = molecular target: T6, Serine/threonine-protein kinase ULK2 (Homo sapiens) (UniProt Q8IYT8); test: Selectivity interaction (Kinase panel (International centre for protein kinase profiling)) EUB0000627a ULK2; details: at 1 µM
T6 sequence (whole entry): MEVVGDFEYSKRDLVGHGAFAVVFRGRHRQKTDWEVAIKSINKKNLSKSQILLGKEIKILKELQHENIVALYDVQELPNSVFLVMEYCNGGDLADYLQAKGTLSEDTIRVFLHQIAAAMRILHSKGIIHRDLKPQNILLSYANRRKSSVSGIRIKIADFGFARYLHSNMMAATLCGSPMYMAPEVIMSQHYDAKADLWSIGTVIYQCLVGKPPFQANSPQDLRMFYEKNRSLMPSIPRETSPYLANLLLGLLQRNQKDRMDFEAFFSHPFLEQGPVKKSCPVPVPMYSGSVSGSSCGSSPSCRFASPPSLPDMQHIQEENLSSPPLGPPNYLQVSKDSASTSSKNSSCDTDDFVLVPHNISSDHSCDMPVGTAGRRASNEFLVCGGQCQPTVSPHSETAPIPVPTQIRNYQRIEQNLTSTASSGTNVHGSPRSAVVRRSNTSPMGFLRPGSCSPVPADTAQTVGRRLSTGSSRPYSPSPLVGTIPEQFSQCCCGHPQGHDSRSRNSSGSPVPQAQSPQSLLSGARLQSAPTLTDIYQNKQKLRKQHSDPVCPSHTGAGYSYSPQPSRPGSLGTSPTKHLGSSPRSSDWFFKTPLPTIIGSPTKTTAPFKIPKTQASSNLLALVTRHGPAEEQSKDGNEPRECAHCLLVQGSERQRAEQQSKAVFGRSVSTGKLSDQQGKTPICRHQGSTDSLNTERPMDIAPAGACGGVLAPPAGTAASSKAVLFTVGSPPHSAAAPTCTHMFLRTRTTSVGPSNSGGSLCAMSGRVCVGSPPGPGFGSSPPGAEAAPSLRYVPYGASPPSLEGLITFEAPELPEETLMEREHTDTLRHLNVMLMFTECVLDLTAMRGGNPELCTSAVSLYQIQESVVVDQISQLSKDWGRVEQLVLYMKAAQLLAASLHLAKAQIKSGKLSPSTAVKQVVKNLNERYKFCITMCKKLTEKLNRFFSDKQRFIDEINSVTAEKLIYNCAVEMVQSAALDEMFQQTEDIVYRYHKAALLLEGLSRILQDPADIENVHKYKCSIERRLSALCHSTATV

[22] = molecular target: Serine/threonine-protein kinase 33 (Homo sapiens, UniProt Q9BYT3); test: Selectivity interaction (Kinase panel (International centre for protein kinase profiling)) EUB0000627a STK33; details: at 1 µM
[23] = molecular target: Protein-tyrosine kinase 6 (Homo sapiens) (UniProt Q13882); details: at 1 µM
[24] = molecular target: T7, Gamma-aminobutyric acid receptor subunit alpha-1 (Homo sapiens) (UniProt P14867); test: Selectivity interaction (GPCR panel (PDSP screen)) EUB0000329a GABRA1; details: at 10 µM
T7 sequence (whole entry): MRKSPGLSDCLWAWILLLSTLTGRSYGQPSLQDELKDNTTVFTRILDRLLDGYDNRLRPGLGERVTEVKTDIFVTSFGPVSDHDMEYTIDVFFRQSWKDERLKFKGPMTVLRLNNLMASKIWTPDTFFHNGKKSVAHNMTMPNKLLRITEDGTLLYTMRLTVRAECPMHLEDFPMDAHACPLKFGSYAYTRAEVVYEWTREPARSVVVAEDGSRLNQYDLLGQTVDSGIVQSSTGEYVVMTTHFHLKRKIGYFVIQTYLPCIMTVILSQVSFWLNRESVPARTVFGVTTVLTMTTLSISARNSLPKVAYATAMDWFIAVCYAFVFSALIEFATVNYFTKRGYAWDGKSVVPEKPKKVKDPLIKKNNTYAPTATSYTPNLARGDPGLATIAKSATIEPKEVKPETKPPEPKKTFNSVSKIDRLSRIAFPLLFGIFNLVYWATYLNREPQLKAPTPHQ

[25] = molecular target: Adenosine receptor A2a (Homo sapiens) (UniProt P29274); test: Selectivity interaction (Enzyme panel (kinases, GPCRs, HDACs, phosphatases)) EUB0000329a ADORA2A; details: at 10 µM
Adenosine receptor A2a (Homo sapiens), sequence (P29274 whole entry): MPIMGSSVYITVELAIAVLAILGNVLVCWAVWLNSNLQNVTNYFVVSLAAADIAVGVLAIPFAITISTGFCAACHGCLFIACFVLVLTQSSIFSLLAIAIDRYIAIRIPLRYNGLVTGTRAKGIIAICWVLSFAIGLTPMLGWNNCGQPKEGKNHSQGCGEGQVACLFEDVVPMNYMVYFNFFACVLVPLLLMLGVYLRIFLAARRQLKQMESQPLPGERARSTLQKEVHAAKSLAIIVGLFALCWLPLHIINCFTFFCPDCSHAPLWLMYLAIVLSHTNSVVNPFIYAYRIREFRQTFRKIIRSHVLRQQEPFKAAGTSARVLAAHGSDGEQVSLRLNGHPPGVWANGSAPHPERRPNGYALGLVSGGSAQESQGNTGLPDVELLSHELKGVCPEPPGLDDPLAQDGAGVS

Mitogen-activated protein kinase 6 (Homo sapiens), sequence (Q16659 whole entry): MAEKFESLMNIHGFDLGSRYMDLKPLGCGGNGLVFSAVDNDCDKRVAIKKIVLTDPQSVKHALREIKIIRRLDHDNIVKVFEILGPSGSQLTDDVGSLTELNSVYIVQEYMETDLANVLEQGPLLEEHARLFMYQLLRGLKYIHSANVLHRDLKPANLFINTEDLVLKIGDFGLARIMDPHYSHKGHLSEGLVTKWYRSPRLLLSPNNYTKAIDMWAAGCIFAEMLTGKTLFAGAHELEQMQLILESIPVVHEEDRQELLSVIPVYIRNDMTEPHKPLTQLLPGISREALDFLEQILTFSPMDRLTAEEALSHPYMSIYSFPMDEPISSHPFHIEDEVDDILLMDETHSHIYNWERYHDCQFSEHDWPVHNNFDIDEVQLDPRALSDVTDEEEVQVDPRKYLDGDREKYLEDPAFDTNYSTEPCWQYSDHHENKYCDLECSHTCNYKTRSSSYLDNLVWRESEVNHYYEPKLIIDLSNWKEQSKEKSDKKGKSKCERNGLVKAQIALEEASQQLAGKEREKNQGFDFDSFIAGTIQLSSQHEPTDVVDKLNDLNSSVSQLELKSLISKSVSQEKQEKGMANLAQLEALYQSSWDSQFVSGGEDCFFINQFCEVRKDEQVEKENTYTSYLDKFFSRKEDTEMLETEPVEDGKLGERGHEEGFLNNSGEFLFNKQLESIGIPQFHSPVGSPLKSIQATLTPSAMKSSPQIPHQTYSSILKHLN

- % of control [1]: 0%
- Ki [2]: > 1.2 µM
- % of inhibition [3]: 84%
- Ki [4]: > 2.7 µM
- % of control [5]: 33%
- % of inhibition [6]: 80%
SMILES: C[C@@H](c1cccc(CN)c1)n1cc(Cl)cc(C(N)=O)c1=N

- % of control [12]: 8.8%
- % of control [13]: 29%
- % of control [14]: 7.7%
- % of control [15]: 3%
- % of control [16]: 3%
- % of control [17]: 31%
- % of control [18]: 31%
SMILES: Nc1c(C(=O)NCc2ccc(C(=O)NCCCC3CCCCC3)cc2)cnn1-c1ccccc1

- % of inhibition [24]: 75.7%
- % of inhibition [25]: 49%
SMILES: O=C(NNS(=O)(=O)c1ccccc1F)c1cc(F)cc(-c2ccccn2)c1

Continued, molecule first:

SMILES: O=C(NCCCC1CCCCC1)c1ccc(CNC(=O)c2cnn(-c3ccccc3)c2C(F)(F)F)cc1
- % of control [7]: 57%
- % of control [8]: 58%
- % of control [9]: 20%

SMILES: CCCc1cc(C)[nH]c(=O)c1CNC(=O)c1cc(-c2ccc(N3CCN(C(C)C)CC3)nc2)cc2c1cnn2C(C)C
- % of inhibition [10]: 20%
- % activity remaining [11]: > 70%

SMILES: Cc1nc(-c2cn3c(n2)-c2ccc(-c4cnn(C(C)(C)C(N)=O)c4)cc2OCC3)n(C(C)C)n1
- % of control [19]: 97.9%
- % of control [20]: 98.6%

SMILES: CCC(=O)Nc1cccc(Oc2nc(Nc3ccc(N4CCN(C)CC4)cc3OC)ncc2Cl)c1
- % of kinase activity [21]: 37%
- % of kinase activity [22]: 33%

SMILES: C=CC(=O)N1CCC([C@@H]2CCNc3c(C(N)=O)c(-c4ccc(Oc5ccccc5)cc4)nn32)CC1
- % of inhibition [23]: 99%
